Data published in paper PMC8113459, “Selective inhibition of cullin 3 neddylation through covalent targeting DCN1 protects mice from acetaminophen-induced liver toxicity” (Nature Communications, 2021).
Where “and” joins values, the source holds several entries; their conditions need not be identical. Identical values can stand only once. Like-named read-outs stand apart in the source and are kept apart here.

How the values were obtained:
DCN3 protein = DCN3 protein (Homo sapiens, UniProt Q8IWE4); test: Intact-protein mass spectrometric analysis, Method B (DCN3); type: binding; details: 3 h incubation
DCN3 protein, sequence (Q8IWE4 86-304 limits assumed): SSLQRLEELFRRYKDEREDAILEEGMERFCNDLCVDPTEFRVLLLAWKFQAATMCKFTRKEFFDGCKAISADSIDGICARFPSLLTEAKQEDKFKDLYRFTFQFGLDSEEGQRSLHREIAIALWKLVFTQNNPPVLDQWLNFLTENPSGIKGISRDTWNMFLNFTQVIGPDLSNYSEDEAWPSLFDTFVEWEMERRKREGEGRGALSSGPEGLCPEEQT
Experimental: Method B: Recombinant DCN1 or DCN3 protein (100 nM in 25 mM Tris 7.5, 200 mM NaCl, 1 mM DTT buffer) was incubated with 1.2-fold excess of the DCN1 inhibitors at 37 °C for 10 min, 1 h, or 3 h. Following incubation, the protein was analyzed by LC–MS (Agilent Q-TOF 6545) under the following conditions: fragmentor voltage, 300 V; skimmer voltage, 75 V; nozzle voltage, 100 V; sheath gas temperature, 350 °C; and drying gas temperature, 325 °C. MassHunter Qualitative Analysis software (Agilent) was used to analyze the data. Intact protein masses were obtained using the maximum entropy deconvolution algorithm. The mass spectrometry data in Supplementary Figs. 14–17 were generated by Method B.

[1] = test system: p21, BIM and CDT1 proteins; test: Western blot, CRL1 and CRL4A substrates; type: cell-based, human
Experimental: Western blotting was performed as described previously. Treated cells were lysed by RIPA buffer supplemented with protease inhibitor. The expression level of indicated proteins was examined by immunoblotting analysis and GAPDH was used as the loading control. Antibodies were purchased commercially: cullin 1 (sc-17775, 1:500 dilution) and cullin 2 (sc-166506, 1:500 dilution) from Santa Cruz Biotech (Santa Cruz, CA); cullin 4A (PA5-14542, 1:1000 dilution), cullin 4B (PA5-50647, 1:1000 dilution), and DCN3 (DCUN1D3, PA5-44000, 1:1000 dilution) from Thermo Fisher Scientific (Wayne, MI); cullin 3 (2759, 1:1000), NRF2 (12721, 1:1000 dilution), HO-1 (70081, 1:1000 dilution), and Bim (2819, 1:1000 dilution) from Cell Signaling Technology (Boston, MA); DCN1 (GWB-E3D700, 1:1000 dilution) from GenWay Biotech (San Diego, CA); and cullin 5 (A302-173A, 1:500 dilution) from Bethyl Labs (Montgomery, TX). Results are representative of two independent experiments.

[2] = test system: NRF2 protein in mouse liver tissue; test: Pharmacodynamics: NRF2 protein in mouse liver tissue (western blot); type: in vivo; details: single dose 25 mg/kg IP; for upregulation of NRF2 protein in the mouse liver: C57BL/6 male mice
Experimental: Fig. 7 DI-1859 effectively increases the level of NRF2 protein in the liver tissue and protects liver tissue damage induced by acetaminophen (APAP) in mice. a Western blotting analysis of the effect of DI-1548 or DI-1859 on the level of NRF2 protein in mouse liver tissue. Liver tissues harvested from C57BL/6 male mice treated with DI-1548 or DI-1859 at 25 mg/kg via intraperitoneal (IP) injection was lysed with RIAP buffer. The expression level of NRF2 protein was examined by western blotting. GAPDH was used a loading control. Representative images of two independent experiments are shown. b Analysis of the serum alanine aminotransferase (ALT) level in mice. The time (h) counted from APAP administration in G2 and G5-8, from DI-1859 or vehicle administration in G1, G3, and G4. Data are presented as mean ± s.d. with n = 9 (G1), 9 (G2), 8 (G3), 8 (G4), 9 G5), 9 (G6), 9 (G7), and 9 (G8). c Immunohistological analysis of mouse liver tissues. Images are representatives in each group. Images were taken with a 100× objective. Scale bar: 100 µm. d Analysis of the ROS level in mouse liver tissue. Data are presented as mean ± s.d. with n = 9 (G1), 8 (G2), 8 (G3), 8 (G4), 8 (G5), 6 (G6), 9 (G7), and 9 (G8). G1: Vehicle (qD for 3 days); G2: APAP (400 mg/kg, a single dose); G3: DI-1859 (25 mg/kg, qD for 3 days); G4: DI-1859 (50 mg/kg, qD for 3 days); G5: DI-1859 (25 mg/kg, qD for 3 days), a single dose of APAP at 400 mg/kg administered 3 h after the second dose of DI-1859 administration on day 2; G6: DI-1859 (50 mg/kg, qD for 3 days), a single dose of APAP at 400 mg/kg administered 3 h after the second dose of DI-1859 administration on day 2; G7: APAP (400 mg/kg, a single dose), followed with DI-859 at 25 mg/kg 3 h after APAP administration and two additional doses on day 2 and day 3; and G8: APAP (400 mg/kg, a single dose), followed with DI-859 at 50 mg/kg 3 h after APAP administration and two additional doses on day 2 and day 3. n = 8–9 mice per group. Source data are provided as a Source Data file.
Western blotting was performed as described previously. […]

[3] = Pharmacokinetics: concentrations in mouse plasma and liver; type: in vivo; details: for concentration at 1 h / concentration at 3 h / concentration at 6 h / concentration at 24 h: male, C57BL/6, mouse, ip
Experimental: Supplementary Table 2A. Concentrations of DI-1548 in mouse Plasma and liver after the C57BL/6 male mice were treated with a single dose of DI-1548 at 25 mg/kg via intraperitoneal (IP) injection. BLQ: below the limit of quantification.
Time point (h) Plasma (ng /mL) Liver (ng /g)
Supplementary Table 2B. Concentrations of DI-1859 in mouse Plasma and liver after the C57BL/6 male mice were treated with a single dose of DI-1859 at 25 mg/kg via intraperitoneal (IP) injection. BLQ:
Time point (h) Pl asma (ng /mL) Liver (ng /g) […]

[4] = C57BL/6 male mice, 25 mg/kg IP, 6 h
[5] = C57BL/6 male mice, 25 mg/kg IP, 24 h
[6] = liver, 25 mg/kg, C57BL/6 male mice, 25 mg/kg IP, 1 h, read-out: Liver concentration
[7] = liver, 25 mg/kg, mouse liver, IP 25mg/kg, 1h, mean of 3 mice, read-out: Concentration in mouse liver, MEAN
[8] = liver, 25 mg/kg, mouse liver, IP 25mg/kg, 3h, mean of 3 mice, read-out: Concentration in mouse liver, MEAN
[9] = liver, 25 mg/kg, mouse liver, IP 25mg/kg, 6h, mean of 3 mice, read-out: Concentration in mouse liver, MEAN
[10] = liver, 25 mg/kg, mouse liver, IP 25mg/kg, 24h, mean, read-out: Concentration in mouse liver, MEAN
[11] = liver, 25 mg/kg, mouse liver, IP 25mg/kg, 24h, single animals, read-out: Concentration in mouse liver, individual mice 1, 2, 3
[12] = plasma, 25 mg/kg, C57BL/6 male mice, 25 mg/kg IP, 1 h, read-out: Plasma concentration
[13] = plasma, 25 mg/kg, C57BL/6 male mice, 25 mg/kg IP, 3 h, read-out: Plasma concentration
[14] = plasma, 25 mg/kg, mouse plasma, IP 25mg/kg, 1h, mean of 3 mice, read-out: Concentration in mouse plasma, MEAN
[15] = plasma, 25 mg/kg, mouse plasma, IP 25mg/kg, 1h, single animals, read-out: Concentration in mouse plasma, individual mice 1, 2, 3
[16] = plasma, 25 mg/kg, mouse plasma, IP 25mg/kg, 3h, mean of 3 mice, read-out: Concentration in mouse plasma, MEAN
[17] = plasma, 25 mg/kg, mouse plasma, IP 25mg/kg, 6h, mean (only one mouse above the limit of quantification), read-out: Concentration in mouse plasma, MEAN
[18] = plasma, 25 mg/kg, mouse plasma, IP 25mg/kg, 6h, single animals, limit of quantification 1 ng/mL, read-out: Concentration in mouse plasma, individual mice 1, 2, 3
[19] = plasma, 25 mg/kg, mouse plasma, IP 25mg/kg, 24h, single animals, limit of quantification 1 ng/mL, read-out: Concentration in mouse plasma, individual mice 1, 2, 3
[20] = mouse liver, IP 25mg/kg, 1h, single animals, 25 mg/kg
[21] = mouse liver, IP 25mg/kg, 3h, single animals, 25 mg/kg
[22] = mouse liver, IP 25mg/kg, 6h, single animals, 25 mg/kg
[23] = mouse plasma, IP 25mg/kg, 1h, single animals, 25 mg/kg
[24] = mouse plasma, IP 25mg/kg, 3h, single animals, 25 mg/kg
[25] = mouse plasma, IP 25mg/kg, 6h, single animals, limit of quantification 1 ng/mL, 25 mg/kg
[26] = mouse plasma, IP 25mg/kg, 24h, single animals, limit of quantification 1 ng/mL

Row | SMILES | covalent complex formation with DCN3 (DCN3 protein) | upregulation of NRF2 protein in the mouse liver [2] | time by which the compounds were cleared from systemic circulation ([3]; 25 mg/kg IP) | Liver concentration [3, 4] | Plasma concentration [3, 4] | Liver concentration [3, 5] | Plasma concentration [3, 5] | concentration at 1 h [3, 6] | concentration at 1 h [3, 7] | concentration at 3 h [3, 8] | concentration at 6 h [3, 9] | concentration at 24 h [3, 10] | concentration at 24 h [3, 11] | concentration at 1 h [3, 12] | concentration at 3 h [3, 13] | concentration at 1 h [3, 14] | concentration at 1 h [3, 15] | concentration at 3 h [3, 16] | concentration at 6 h [3, 17] | concentration at 6 h [3, 18] | further results
1 | C=C(CN1CCOCC1)C(=O)NC[C@@H](NC(=O)[C@H](Cc1nc2ccc(C(C)C)cc2s1)NC(=O)CC)C1CCCCC1 [DI-1548] | fail to form any detectable complex | robust upregulation | < 3 h | BLQ | BLQ | BLQ | BLQ | 783 ± 336 ng/g | 783 ng/g | 3.32 ng/g | 2.37 ng/g | 1.22 ng/g | 1.22 ng/g | 1830 ± 319 ng/mL | 4.5 ± 3.6 ng/mL | 1830 ng/mL | 1820 ng/mL | 4.47 ng/mL | 1.12 ng/mL | 1.12 ng/mL | effect on the levels of p21, BIM and CDT1 proteins ([1]; concentrations up to 1000 nM): no effect; Liver concentration ([3]; C57BL/6 male mice, 25 mg/kg IP, 3 h): BLQ; concentration at 3 h ([3]; liver, 25 mg/kg, mouse liver, IP 25mg/kg, 3h, single animals, read-out: Concentration in mouse liver, individual mice 1, 2, 3): 3.8 ng/g; concentration at 6 h ([3]; liver, 25 mg/kg, mouse liver, IP 25mg/kg, 6h, single animals, read-out: Concentration in mouse liver, individual mice 1, 2, 3): 2.47 ng/g; concentration at 24 h [3, 19]: < 1 ng/mL; Concentration in mouse liver, individual mice 1, 2, 3 [3, 20]: 766.08 ng/g and 455.81 ng/g and 1128.06 ng/g; Concentration in mouse liver, individual mice 1, 2, 3 [3, 21]: 2.91 ng/g and 3.26 ng/g; Concentration in mouse liver, individual mice 1, 2, 3 [3, 22]: 2.85 ng/g and 1.80 ng/g; Concentration in mouse plasma, individual mice 1, 2, 3 [3, 23]: 2146.60 ng/mL and 1507.85 ng/mL; Concentration in mouse plasma, individual mice 1, 2, 3 [3, 24]: 2.23 ng/mL and 8.63 ng/mL and 2.55 ng/mL; Concentration in mouse plasma, individual mice 1, 2, 3 [3, 25]: <1 ng/mL; Concentration in mouse plasma, individual mice 1, 2, 3 [3, 26]: <1 ng/mL
2 | C=C(CN(C)C)C(=O)NC[C@@H](NC(=O)[C@H](Cc1nc2ccc(C(C)C)cc2s1)NC(=O)CC)C1CCCCC1 [DI-1859] | fail to form any detectable complex | robust upregulation | < 3 h | BLQ | BLQ | BLQ | BLQ | 3280 ± 531 ng/g | 3280 ng/g | 30.3 ng/g | 2.27 ng/g | 1.46 ng/g | 1.56 ng/g | 1740 ± 292 ng/mL | 28 ± 12 ng/mL | 1740 ng/mL | 2070 ng/mL | 27.9 ng/mL | 1.04 ng/mL | < 1 ng/mL | effect on protein level of CDT1 ([1]; THLE2, Fig. 6b): no effect; persistence of upregulation of NRF2 in mouse liver [2]: > 24 h; concentration at 3 h ([3]; liver, 25 mg/kg, C57BL/6 male mice, 25 mg/kg IP, 3 h, read-out: Liver concentration): 30 ± 29 ng/g; concentration at 1 h ([3]; liver, 25 mg/kg, mouse liver, IP 25mg/kg, 1h, single animals, read-out: Concentration in mouse liver, individual mice 1, 2, 3): 3880 ng/g; concentration at 24 h [3, 19]: < 1 ng/mL; Concentration in mouse liver, individual mice 1, 2, 3 [3, 20]: 3079.98 ng/g and 2879.94 ng/g; Concentration in mouse liver, individual mice 1, 2, 3 [3, 21]: 13.04 ng/g and 64.07 ng/g and 13.91 ng/g; Concentration in mouse liver, individual mice 1, 2, 3 [3, 22]: 1.59 ng/g; Concentration in mouse liver, individual mice 1, 2, 3 ([3]; mouse liver, IP 25mg/kg, 24h, single animals, 25 mg/kg): 1.41 ng/g and 1.40 ng/g; Concentration in mouse plasma, individual mice 1, 2, 3 [3, 23]: 1549.72 ng/mL and 1588.65 ng/mL; Concentration in mouse plasma, individual mice 1, 2, 3 [3, 24]: 36.02 ng/mL and 14.64 ng/mL and 33.18 ng/mL; Concentration in mouse plasma, individual mice 1, 2, 3 [3, 25]: <1 ng/mL and 1.04 ng/mL; Concentration in mouse plasma, individual mice 1, 2, 3 [3, 26]: <1 ng/mL
